# Numbered stars: 1 amine (or outer) side, 2 acyl side, 3 side chain; on linkers, the order of the positions; unused ones are H or OH. Square brackets hold non-standard residues; d marks the D form. Ends that are not written are not given here. Peptide text beside a SMILES is read from it. Gly(N-CH2CH2-imidazol-4-yl) = O=C(O)CNCCc1c[nH]cn1; X1 = CC(C)[C@H](C)N(CC(=O)[*:2])[*:1]; Nspe = C[C@H](NCC(=O)O)c1ccccc1; Nphe = O=C(O)CNCc1ccccc1; Nlys = NCCCCNCC(=O)O
# Key:
# [1] = system: Proteus mirabilis ATCC 35659; test: Broad-spectrum antibacterial MIC; format: cell-based; details: Table 7B; 10% hemolytic dose divided by MIC; P. mirabilis ATCC 35659
# Procedure: (§1) Antibacterial assays. MICs were determined according to CLSI M7-A6 protocols in a 96-well microtiter plate. In test wells, 50 uL bacterial inoculum (5×10^5 CFU/ml) in Mueller-Hinton broth (MHB) was added to 50 μL peptoid solution in MHB (prepared by 1:2 serial dilutions). Positive controls contained 50 μL inoculum and 50 μL MHB without peptoid. […] MIC values reported were reproducible between three independent experimental replicates, each consisting of two parallel trials. Broad-spectrum antimicrobial susceptibility testing was performed against BSL2 pathogens by Nova Biologicals, Inc. (Conroe, Tex.).
# (§2) Broad-spectrum antibacterial assays. MICs of compounds were determined by microdilution procedure in Mueller-Hinton broth (MHB) in accordance with CLSI M7-A6 protocols in a manner similar to that described for the screen antibacterial assays. Inoculated microtiter plates were incubated at 35° C. for 24 hours prior to the result being recorded. Four ATCC strains that were used as standards are recommended by CLSI: Pseudomonas aeruginosa ATCC 27853, Escherichia coli ATCC 25922, Staphylococcus aureus ATCC 29213 and Enterococcus faecalis ATCC 29212. Other strains from the ATCC collection include Proteus vulgaris ATCC 49132, Proteus mirabilis ATCC 35659, Klebsiella pneumoniae ATCC 33495, Enterobacter aerogenes ATCC 35029 and Serratia marcescens ATCC 13880. S. aureus NRS100 (COL) is a well characterized methicillian-resistant S. aureus (MRSA) strain. The strains S. aureus VAN1 and S. aureus VAN2, vancomycin-resistant MRSA strains that were isolated in Michigan and Pennsylvania, were the first vancomycin-resistant strains clinically isolated. S. aureus NRS 119 and S. aureus NRS 120 are linezolid-resistant isolates from the Network on Antimicrobial Resistance in S. aureus (NARSA) collection. E. faecalis 99 and E. faecium 106 are vancomycin-resistant enterococcal strains.
# [2] = system: Serratia marcescens ATCC 13880; test: Broad-spectrum antibacterial MIC; format: cell-based; details: Table 7B; 10% hemolytic dose divided by MIC; S. marcescens ATCC 13880
# Procedure: as §1, §2
# [3] = RP-HPLC solvent composition at elution as measure of molecular hydrophobicity; format: physicochemical; details: for HPLC elution solvent: Table 1, percent acetonitrile in water, 0.1% (v/v) TFA at HPLC elution; for % ACN at RP-HPLC elution: Table 8, gradient 5 to 95% ACN over 45 min, 0.2 ml/min, average of three replicates
# Description: An initial set of 15 ampetoid analogs was synthesized to determine whether peptoids are affected by structural and sequence modifications in a manner consistent with AMP activities. The designs for ampetoids in this library were derived from two antibacterial and selective amphipathic dodecamers, 1 and 2. Peptoid 1 [H-(Nlys-Nspe-Nspe)4-NH2] is composed of 2/3 Nspe, the peptoid analog of phenylalanine, and 1/3 Mys, the peptoid analog of lysine (see FIG. 1 for the structures of representative peptoid monomers and corresponding N-substituents). Peptoid 2 [H-(Mys-Nssb-Nspe)4-NH2] contains 1/3 isoleucine-like Nssb monomers in place of Nspe. The variant sequences were designed to effect changes in chirality, length, hydrophobicity, charge, and amphipathicity. All of these compounds were tested for antibacterial activity against representative BSL1 Gram-negative (E. coli JM109) and Gram-positive (B. subtilis BR151) bacterial strains. As an initial measure of selectivity, the lytic activity of the peptoids was determined against human erythrocytes. Table 1 summarizes the sequences synthesized, the solvent composition at RP-HPLC elution as a relative measure of molecular hydrophobicity, and antibacterial and hemolytic activities.
# Following synthesis, peptoid oligomers can be cleaved from the resin, simultaneously removing the tert-butoxycarbonyl (Boc) protecting group from Mys residues, by treatment with 10 ml 2,2,2-trifluoroacetic acid (TFA)/triisopropylsilane/H2O (95:2.5:2.5 by volume) for 30 min. The cleavage mixture is then diluted with 25 ml 50% aqueous acetonitrile, frozen, and lyophilized. Dilution and lyophilization is repeated twice more in order to remove excess TFA. Subsequent to cleavage, peptoids are each purified to >97% homogeneity by preparative scale reversed-phase HPLC using a Waters Prep LC 4000 system, with Waters 2487 dual-wavelength UV detection, and gradient elution (solvent A, 0.1 vol % trifluoroacetic acid (TFA) in water; solvent B, 0.1 vol % TFA in acetonitrile) through a Vydac (Hysperia, Calif.) 214TP101550 C4 peptide/protein column (10-15 μm, 300 Å, 5×25 cm). Following prep HPLC, peptoid purities and crude yields were determined from analytical scale HPLC, performed with a Waters 2695 Separations Module with a Waters 2487 dual-wavelength UV detector and gradient elution (solvent A, 0.1 vol % TFA in water; solvent B, 0.1 vol % TFA in acetonitrile) through a Vydac C4 214TP53 peptide/protein column (5 μm, 300 Å, 3.2×250 mm). The precise gradient employed for HPLC depended on the identity and hydrophobicity of the oligomer in question. All analytical HPLC was performed at 0.5 ml/min flow and 58° C. Preparative HPLC was performed at 50 ml/min flow and room temperature.
# Compound synthesis and purification. Peptoids were synthesized using an ABI 433A peptide synthesizer (Applied Biosystems, Inc.) on Rink amide MBHA resin (Novabiochem, Inc.) using the submonomer approach^3. Briefly, bromoacetic acid, activated by diisopropylcarbodiimide was used to form a bromocetylated intermediate on the terminal amide group. Bromide was then substituted with the desired primary amine through SN2 displacement to build the peptoid chain. The amines used in peptoid synthesis include benzylamine, octadecylamine, (s)-(+)-2-amino-3-methylbutane, (s)-α-methylbenzylamine, (r)-(α-methylbenzylamine (all purchased from Sigma-Aldrich), and N-tert-butoxycarbonyl-1,4 diaminobutane (Mys) that was made using a published procedure^83. Resin-bound peptoids were then exposed to a mixture of trifluoroacetic acid (TFA): triisopropylsilane:water (95:2.5:2.5, v:v:v) for ten minutes to cleave peptoids from the solid phase. Peptoids were purified by reversed-phase HPLC (RP-HPLC) (Waters Corporation) using a C18 column and a linear acetonitrile/water gradient. A final purity greater than 97% as measured by analytical RP-HPLC (Waters Corporation) was achieved, and the identity of each molecule was checked using electrospray ionization mass spectrometry. […]
Molecule,Selectivity ratio (SR) [1],Selectivity ratio (SR) [2],HPLC elution solvent [3] [%],"HPLC ELUTION ([3]; Table 2, percent acetonitrile in H2O, C18 column, 0.1% TFA, pH 1) [%]","HPLC elution (% ACN) ([3]; Table 5, average of three injections, linear 5%-95% acetonitrile/water (0.1% TFA) over 45 minutes, C18 column)",% ACN at RP-HPLC elution ([3]; C18 column) [% ACN]
"GIGKFLKKAKKFGKAFVKILKK-NH2 [pexiganan, reference compound]",<1.4,<1.4,38,38,50.2,50.2
"NCCCCNCC(=O)N(CC(=O)N(CC(=O)N(CCCCN)CC(=O)N(CC(=O)N(CC(=O)N(CCCCN)CC(=O)N(CC(=O)N(CC(=O)N(CCCCN)CC(=O)N(CC(=O)N(CC(N)=O)Cc1ccccc1)Cc1ccccc1)Cc1ccccc1)Cc1ccccc1)Cc1ccccc1)Cc1ccccc1)Cc1ccccc1)Cc1ccccc1 [1achiral, H-(Nlys-Npm-Npm)4-NH2] (H-[Nlys][Nphe][Nphe][Nlys][Nphe][Nphe][Nlys][Nphe][Nphe][Nlys][Nphe][Nphe]-NH2)",<2.4,2.4,,,,60.4
"CC(C)[C@H](C)N(CC(=O)N(CC(=O)N(CCCCN)CC(=O)N(CC(=O)N(CC(=O)N(CCCCN)CC(=O)N(CC(=O)N(CC(=O)N(CCCCN)CC(=O)N(CC(=O)N(CC(N)=O)[C@@H](C)c1ccccc1)[C@@H](C)C(C)C)[C@@H](C)c1ccccc1)[C@@H](C)C(C)C)[C@@H](C)c1ccccc1)[C@@H](C)C(C)C)[C@@H](C)c1ccccc1)C(=O)CNCCCCN [1-Nsdp2,5,8,11, H-(Nlys-Nsdp-Nspe)4-NH2] (H-[Nlys][X1][Nspe][Nlys][X1][Nspe][Nlys][X1][Nspe][Nlys][X1][Nspe]-NH2)",<1.5,<1.5,,,,
"C[C@@H](c1ccccc1)N(CC(=O)N(CCc1cnc[nH]1)CC(=O)N(CCCCN)CC(=O)N(CC(=O)N(CC(=O)N(CCCCN)CC(=O)N(CC(=O)N(CCc1cnc[nH]1)CC(N)=O)[C@@H](C)c1ccccc1)[C@@H](C)c1ccccc1)[C@@H](C)c1ccccc1)C(=O)CN(CCCCN)C(=O)CN(C(=O)CN(C(=O)CNCCCCN)[C@@H](C)c1ccccc1)[C@@H](C)c1ccccc1 [1-Nhis6,12, H-(Nlys-Nspe-Nspe-Nlys-Nspe-Nhis)2-NH2] (H-[Nlys][Nspe][Nspe][Nlys][Nspe][Gly(N-CH2CH2-imidazol-4-yl)][Nlys][Nspe][Nspe][Nlys][Nspe][Gly(N-CH2CH2-imidazol-4-yl)]-NH2)",,,37,,,51.4
